Results as given in patent US20080171037A1, “Apo-3 ligand polypeptide” (Genentech, Inc., priority 1997, published 2008).
Values belong to the compound of their own block, whether it stands above or below them. Where a SMILES comes first, the peptide text is derived from it. The star is where a group is joined. Cbz = O=C(OCc1ccccc1)*; CH2F = FC*

Legend:
DR5 = molecular target: T1, DR5 (Homo sapiens, UniProt O14763); experiment: Co-immunoprecipitation binding assay with DR5 ECD; settings: ligand and receptor 1 μg/ml, FIG. 8A
T1 construct: the ECD of the Apo-2L receptor, DR5; made in house
Description: A Flag-epitope tagged soluble Apo-3 was produced (as described for DR5 in Sheridan et al., Science, 277:818 (1997)) and tested in a co-immunoprecipitation assay to examine its ability to associate with a histidine tagged soluble Apo-3 Ligand (see Example 3 above). […] The respective ligands (1 μg/ml) and receptors (1 μg/ml) were incubated for 1 hour at room temperature. The reaction mixtures were subjected to precipitation with anti-Flag antibody conjugated to sepharose beads (Kodak) (FIG. 8A, left) or nickel-sepharose (Qiagen) (FIG. 8A, right) by overnight incubation at 4° C. according to manufacturer's instructions and resolved by gel electrophoresis. The ligands were visualized by Western blot analysis with nickel-conjugated horseradish peroxidase. In FIG. 8A, molecular weight markers (kDa) are indicated on the left.

Apo-3 Ligand = molecular target: T2, Apo-3 Ligand (Homo sapiens, UniProt O43508); experiment: Apoptosis induction by Apo-3 Ligand after preincubation with Flag tagged Apo-3 and immunodepletion; format: cell-based; settings: preincubation of ligand and immunodepletion of complexes with anti-Flag beads, FIG. 8B
T2 construct: made in house; host or cells: E. coli
T2 sequence (O43508 47-249): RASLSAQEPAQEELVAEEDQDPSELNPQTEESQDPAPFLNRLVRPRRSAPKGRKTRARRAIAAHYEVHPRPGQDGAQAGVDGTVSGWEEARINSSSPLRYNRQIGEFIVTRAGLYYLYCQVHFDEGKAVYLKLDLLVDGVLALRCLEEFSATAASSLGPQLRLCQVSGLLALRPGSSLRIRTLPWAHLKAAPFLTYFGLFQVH
Excerpt: Thus, there appeared to be a specific complex formation between Apo-3 Ligand and Apo-3.

[1] = tested on: HeLa S3 cervical carcinoma cells; experiment: Apoptosis in HeLa S3 cells (DNA fragmentation analysis); format: cell-based, human; settings: HeLa S3 cells, inhibitor 100 nM, FIG. 9C
Description: HeLa S3 cervical carcinoma cells (ATCC CCL 2.2) were similarly pre-treated with CHX and then incubated with soluble Apo-3 Ligand (prepared as described in Example 3 above) alone or together with zVAD-fmk or DEVD-fmk (Research Biochemicals) (100 nM). The treated cells were then subjected to DNA fragmentation analysis.

[2] = tested on: Jun N-terminal kinase (JNK/SAPK); experiment: JNK/SAPK activity in 293 cells transfected with full length Apo-3 Ligand; format: cell-based, human; settings: 293 cells, inhibitor 200 μM, FIG. 7
Description: The pRK5 plasmid encoding Apo-3 Ligand polypeptide or empty pRK5 plasmid (see Example 6 above) was transiently transfected into human 293 cells (ATCC CCL 1573) by calcium phosphate precipitation. Four hours later, one set of cells was treated with z-VAD-fmk (Research Biochemicals) (200 μM). Twenty hours later, the cells were harvested and analyzed for activity of Jun N-terminal kinase (JNK; also called stress activated protein kinase or SAPK) using a commercially available JNK/SAPK assay kit (New England Biolabs), and according to the manufacturer's instructions.

HeLa cells = experiment: Apoptosis in HeLa cells transfected with full length Apo-3 Ligand (FACS, annexin V binding); format: cell-based, human; settings: HeLa cells, inhibitor 200 μM, FIG. 6
Description: A pRK5 plasmid (see EP 307,247) encoding Apo-3 Ligand polypeptide (amino acids 1 to 249 of FIG. 1), or empty pRK5 plasmid, was transiently transfected along with a pRK5 plasmid encoding human CD4 as a marker for transfection into human HeLa cells by electroporation, and the cells were plated in tissue culture dishes. Four hours later, the caspase inhibitor z-VAD-fmk (Research Biochemicals) (200 μM) was added to some of the dishes. Twenty hours later, apoptosis was determined by FACS analysis of cells positive for the CD4 marker by measuring binding of fluorescein isothiocyanate (FITC)-conjugated annexin V (Brand Applications) (see WO 97/25428).

[3] = tested on: MCF-7 breast carcinoma cells; experiment: Apoptosis in MCF-7 breast carcinoma cells (microscopy, Hoechst dye); format: cell-based, human; settings: MCF-7 cells pre-treated 1 hour, then 14 hours with ligand, FIG. 9B
Description: Human MCF-7 breast carcinoma cells (ATCC HTB 22) were pre-treated for 1 hour with cyclohexamide (CHX) (10 μg/ml) and incubated for 14 hours with soluble Apo-3 Ligand (2 μg/ml; prepared as described in Example 3 above) alone or together with zVAD-fmk (Research Biochemicals) (100 nM). The cells were then stained with Hoechst dye and photographed by phase (FIG. 9A, left) and by fluorescence (FIG. 9A, right) microscopy. In FIG. 9A, arrowheads indicate some of the apoptotic cells (left) and their condensed nuclei (right).
In a separate experiment, the MCF-7 cells were pre-treated for 1 hour with buffer or CHX, incubated for an additional 14 hours with the indicated concentrations of soluble Apo-3 Ligand (see FIG. 9B), and apoptotic or live cells were score by microscopy.

T1 sequence (O14763 56-184 limits assumed): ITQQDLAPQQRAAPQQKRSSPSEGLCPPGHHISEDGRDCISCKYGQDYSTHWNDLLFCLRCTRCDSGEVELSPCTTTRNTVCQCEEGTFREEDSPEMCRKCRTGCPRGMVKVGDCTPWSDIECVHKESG

binding to DR5 (DR5): bound to DR5
Compound: Apo-2 Ligand: TNF family cytokine, also referred to as TRAIL, tested for comparison

effect on apoptosis induction by Apo-3 Ligand (Apo-3 Ligand): inhibited apoptosis induction
Compound: Flag tagged Apo-3: Flag-epitope tagged soluble Apo-3 receptor (also DR3, Wsl-1, TRAMP, LARD)

Compound: DEVD-fmk
effect on induction of apoptosis by Apo-3 Ligand [1]: blocked induction of apoptosis

Compound: COC(=O)C[C@H](NC(=O)[C@H](C)NC(=O)[C@@H](NC(=O)OCc1ccccc1)C(C)C)C(=O)CF [z-VAD-fmk, reference compound] (Cbz-Val-Ala-Asp(OMe)-CH2F)
effect on JNK activation by Apo-3 Ligand [2]: augmented JNK activation | effect on induction of apoptosis by Apo-3 Ligand [1]: blocked induction of apoptosis | effect on the increase in apoptosis by Apo-3 Ligand transfection (HeLa cells): blocked

Compound: C[C@@H]1C[C@@H]([C@H](O)CC2CC(=O)NC(=O)C2)C(=O)[C@@H](C)C1 [cyclohexamide, reference compound]
effect on Apo-3 ligand-induced apoptosis [3]: augmented
